Values quoted from earlier work in patent US5753436A, “Chemiluminescent energy transfer assays” (Tropix, Inc., priority 1995, dated 1998).

System: alkaline phosphatase

In the case of `O=P(O)(O)Oc1ccc2nc(-c3nc4ccccc4s3)sc2c1` [AttoPhos], the Km is listed as 30 µM and the turnover number (2.40M DEA (diethanolamine) pH 9.0, 0.23 mM MgCl2, 0.005% NaN by weight) is listed as 85,400 molecules of AttoPhos per minu.
